We go through one substance from patent publication US8288363B2, “Medicaments for anti-herpes virus treatments” (ASE & BIO, priority 2006, dated 2012).

One data set deals with HSV-1R. As to the kind of experiment: Action on the viral adsorption (treatments A, B, C). To be noted: treatment C (present during and after infection), 72 hours. Type of data set: cell-based, herpes simplex virus 1. How it is done: (§1) To determine whether PS3 has an effect on the viral adsorption, the procedure was as follows.
(§2) Vero cells were seeded at a cell density of 3.5·10^4 cells/well of a 96-well microtitre plate in 100 μl of MEM medium containing 8% FCS 24 hours before the test. The viral suspensions of HSV-1, HSV-1R, HSV-2 and HSV-2R, defined by an MOI of 0.01 ID50/cell for a cell concentration of 350,000 cells/ml, were tested.
(§3) On the day of the test, the cells were subjected to three different treatments designated A, B and C.
(§4) According to treatment A, cells treated with 50 μl of PS3 or comparison product (acyclovir) of a given concentration were infected with 50 μl of one of the viral suspensions identified above for one hour at 4° C.
(§5) The infected cells were then washed with 100 μl of saline buffer in order to remove the PS3 or the reference product as well as the viral particles which had not been adsorbed by the cells.
(§6) After having filled each well with sufficient MEM medium containing 8% FCS to arrive at a volume of 200 μl, the cells were then placed in an oven at 37° C. for 72 hours. […]
(§7) For these 3 treatments, the inhibitory effect of PS3 and of the reference product (expressed in EC50) on the adsorption of the four abovementioned viral strains after 72 hours was evaluated by measurement of the EC50 values in accordance with the method described in Example 3.

A further data set concerns HSV-1. The description is as above. It counts as cell-based, herpes simplex virus 1. To be noted: treatment C (present during and after infection), 72 hours. How it is done:
as §1, §2, §3, §4, §5, §6, §7

Another data set concerns HSV-2R. The data set is described as above. Type of data set: cell-based, herpes simplex virus 2. The conditions noted are these: treatment C (present during and after infection), 72 hours. On the procedure: as §1, §2, §3, §4, §5, §6, §7
Another data set deals with HSV-2. The data set is described as above. It counts as cell-based, herpes simplex virus 2. The conditions noted are these: treatment C (present during and after infection), 72 hours. How it is done: as §1, §2, §3, §4, §5, §6, §7
The subject of data set [1] is white rabbits of the New Zealand breed. As to the kind of experiment: Ocular irritation test. It counts as in vivo. On the procedure: (§8) This study was carried out on white rabbits of the New Zealand breed and on rats of the Sprague Dawley breed.
The white rabbits were subjected on the one hand to the ocular irritation test and on the other hand to the primary skin irritation test.
(§9) observing the OECD Guidelines no. 404 and 405 of 24 Feb. 1987 to the extent that they are studies carried out on white rabbits, and OECD Guidelines no. 401 and 402 (1987) as well as EEC Directive B-I 92/69 (1992) to the extent that they are studies carried out on Sprague Dawley rats.

The subject of data set [2] is rats of the Sprague Dawley breed. As to the kind of experiment: Acute dermal toxicity. Type of data set: in vivo. How it is done: as §8
The rats were subjected on the one hand to a study for determination of the acute dermal toxicity and on the other hand to a study for determination of the acute oral toxicity.
as §9

The next data set concerns factor Xa. Description: HEPTEST coagulation test. To be noted: in contrast to heparin. It counts as biochemical. On the procedure: For this, the anticoagulant activity of the laminarin sulphate PS3 obtained in Example 1 was determined as a function of its concentration in comparison with that of heparin in the conventional coagulation, APTT or “activated partial thromboplastin time” tests, the prothombin time test, the so-called “HEPTEST” test and the thrombin time test. The APTT reflects an interaction with the intrinsic coagulation system, while the prothrombin time reflects an interaction with the extrinsic coagulation; the so-called “HEPTEST” test is the conventional test for measurement of the inhibitory activity of heparin with respect to factor Xa, and the thrombin time corresponds to the last stage of coagulation, that is to say the formation of fibrins induced by thrombin. […] The specific activity (IU/mg) in the APTT represents 30% of the heparin activity, and in the case of the thrombin time 60%. To prevent coagulation totally, it was necessary to apply a concentration 4 times higher in the case of the APTT and a concentration 20 times higher in the case of the thrombin time.

The test system of a further data set is extrinsic coagulation. Description: Prothrombin time test. It counts as biochemical. How it is done: (§10) For this, the anticoagulant activity of the laminarin sulphate PS3 obtained in Example 1 was determined as a function of its concentration in comparison with that of heparin in the conventional coagulation, APTT or “activated partial thromboplastin time” tests, the prothombin time test, the so-called “HEPTEST” test and the thrombin time test. The APTT reflects an interaction with the intrinsic coagulation system, while the prothrombin time reflects an interaction with the extrinsic coagulation; the so-called “HEPTEST” test is the conventional test for measurement of the inhibitory activity of heparin with respect to factor Xa, and the thrombin time corresponds to the last stage of coagulation, that is to say the formation of fibrins induced by thrombin.

For data set [3], the system named is formation of fibrins induced by thrombin. As to the kind of experiment: Thrombin time test. Type of data set: biochemical. To be noted: relative to heparin. How it is done:
as §10

A further data set deals with thrombin. Description: Specific antithrombin test using chromogenic substrates. It counts as biochemical. An excerpt:
The effect in the case of the thrombin time can be considered as being due to an inhibition of thrombin dependent on heparin cofactor II. On the basis of on the one hand the lower specific activity and on the other hand the profile dependent on the concentration and also on the other hand other investigations relating to the action mechanism, it is possible to consider that in the case of the laminarin sulphate PS3, the risk of bleeding is considerably lower than in the case of heparin.

Turning to sulphated laminarin [PS3], the EC50 was determined as 5.54 µg/mL in the data set on HSV-1R, 3.84 µg/mL in the data set with HSV-1, 0.30 µg/mL in the data set on HSV-2R and 0.24 µg/mL with HSV-2. In addition, the Ocular irritation entry in [1] is “slightly irritating action”. Also, in data set [2], the “dermal 50% lethal dose” value is on record as “greater than 2 g/kg of body weight”. Also, in the data set with factor Xa, the “Activity in the HEPTEST test compared with heparin” value is given as “more than 20 times weaker”. Besides, the “Anticoagulant effect on the prothrombin time” value in the data set with extrinsic coagulation is “no pronounced anticoagulant effect”. In data set [3], the “Concentration needed to prevent coagulation totally, thrombin time” value is 20 times higher. Also, the “Specific activity (IU/mg) in the thrombin time as share of the heparin activity” value in data set [3] amounted to 60%. Besides, the antithrombin activity result with thrombin is given as “nor an antithrombin activity”.

A word on the EC50: it is the concentration giving half of the maximal effect. A higher EC50 goes with a less potent agent.
